Test results from US7691582B2, “Methods of secretory vimentin detection and modulation” (The Regents of the University of Michigan, priority 2002, dated 2010).
Entries after “also recorded” stand apart in the source; their conditions may differ.

What was measured:
Format in all cases: cell-based, human
[1] = test system: secretion of vimentin from MDM; assay: Vimentin secretion by MDM, Western blot of supernatants; conditions: for secretion of vimentin from the mature MDM: eleven day MDM, 40% human serum, monensin 2 or 4 μg ml−1 or tunicamycin 4 μg ml−1, 12 h, FIG. 2h; for vimentin secretion (vimentin in the supernatant): MDM treated 2 h with inhibitor (GÖ 6983 250 nM; SB 203580 100 μM), FIGS. 3c, 4a, 4b
Experimental: Monocyte-derived macrophages (MDMs) were prepared as previously described^40. Briefly, heparinized venous blood was collected upon consent from healthy volunteers, and peripheral blood mononuclear cells (PBMC) were separated by Ficoll-Hypaque (Pharmacia Biotech AB, Uppsala, Sweden) density gradient centrifugation. MDM were purified by adherence to plastic for 2 hat […] at a concentration of 5×10^5 ml^−1. Adherent cells were consistently >90% monocytes as described^40. Adherence-purified human monocytes were cultured in X-vivo medium supplemented with 40% human AB serum (Bio-Whittaker, Walkersville, Md.) and 100 units of penicillin and 50 units of streptomycin per ml^12.
(§1) Cells were maintained for 12-48 h in serum-free medium. When applicable, during the incubation in serum-free media cells were treated for 12 h with 10-500 ng ml^−1 IL-10, 0.5-5 ng ml^−1 TNF-α, 4 μg ml^−1 tunicamycin, E-64 [100 µM] (Sigma), or 2 or 4 μg ml^−1 monensin (Pharmingen). Alternatively, cells were treated for 2 h with GÖ 6983 [250 nM], SB 203580 [100 μM], or OA [100 nM] (Calbiochem) followed by 12 h incubation in serum-free media or treatment with TNF-α. The viability of the cells up to 48 h was almost 100% as measured by MTT assay (Boehringer Mannheim, Indianapolis, Ind.) and LDH release as previously described^12. Supernatants were collected and centrifuged for 20 min at 1500 RPM to remove cell debris and concentrated by a centrifugal filter device (Millipore) in the presence of a protease inhibitor cocktail (Boehringer Mannheim, Indianapolis, Ind.) and were either used immediately or stored at −70° C. Cells were washed and lysed with 1 ml lysis buffer (50 mM Tris pH 7.5, 150 mM NaCl, 1% NP-40 0.1% SDS, 0.5% Na-Deoxycholate and complete EDTA-free protease inhibitor cocktail) was added to the cells and allowed to incubate on ice for 15 min. The lysate was centrifuged at 10,000 rpm for 20 min at 4° C., the supernatant recovered, and the protein extract was either used immediately or stored at −70° C. Equal amounts of protein (20 μg) were loaded under reducing conditions and separated by 10% SDS PAGE. The gel was transferred to nitrocellulose and immunoblotted with mouse monoclonal anti-vimentin antibody V9 (Research Genetics, Inc), goat anti-vimentin antibody (Chemicon International, Calif.) or goat anti-actin (Santa-Cruz Biotechnology, Inc) followed by a horseradish peroxidase-conjugated appropriate secondary antibody. Chemiluminescent signal was detected using the Super Signal West Pico system (Pierce Chemical Co, Rockford, Ill.).

[2] = test system: secretion of vimentin from MDM; assay: as above
[3] = test system: vimentin in 12 day MDM; assay: In vivo phosphorylation of vimentin, [32P] orthophosphate incorporation in 12 day MDM; conditions: GÖ 6983 250 nM or OA 100 nM during [32P] labeling, Western blot of same membrane, FIG. 4e
Experimental: 12 day MDM (1.5×10^6) were rinsed three times with phosphate-free RPMI medium (Gibco-BRL, Grand Island, N.Y.). Cells were incubated in 5 ml of phosphate-free RPMI media and allowed to equilibrate at 37 ° C. in a 6 well plate for 2 h. The media was replaced with 1 ml/well of phosphate-free RPMI media with 10% dialysed human serum and 0.166 mCi of [^32P] orthophosphoric acid (Amersham Pharmacia Biotech) for 6 h of incubation. In addition to the control, some wells were treated with GÖ 6983 [250 nM] or OA [100 nM]. Following treatment, medium was removed and replaced by serum free medium for 18 h. Supernatant and cells were prepared for immunoprecipitation as described above (Metabolic Labeling section). Phosphorylated vimentin protein was immunoprecipitated as above, and the samples were separated by 10% SDS-PAGE electrophoresis under reducing conditions. Proteins were transferred to nitrocellulose and subjected to autoradiography for 4 h then immunoblotted with mouse monoclonal anti-vimentin antibody (Research Genetics, Inc.), stripped and re-probed with goat polyclonal anti-vimentin antibody (Chemicon International, Calif.), followed by horseradish peroxidase-conjugated goat anti-mouse or rabbit anti-goat secondary antibodies. Chemiluminescent signal was detected using the Super Signal West Pico system (Pierce Chemical Co, Rockford, Ill.).

[4] = test system: phosphorylated vimentin in MDM; assay: Immunoprecipitation with anti-phospho-(Ser/Thr) antibody, vimentin detected by V9; conditions: 7 day MDM in 10% serum; okadaic acid 100 nM or GÖ 6983 250 nM, 2 h; FIG. 4d
[5] = test system: vimentin proteolysis in MDM; assay: Vimentin proteolytic products in MDM, Western blot with V9; conditions: MDM treated with E-64 [100 µM], 12 h; FIG. 3e
Experimental: as §1, with “The lysate was centrifuged at 10,000 rpm for 20 min at 4° C., the supernatant recovered, and the protein extract was either used immediately or stored at −70° C. Equal amounts of protein (20 μg) were loaded under reducing conditions and separated by 10% SDS PAGE. The gel was transferred to nitrocellulose and immunoblotted with mouse monoclonal anti-vimentin antibody V9 (Research Genetics, Inc), goat anti-vimentin antibody (Chemicon International, Calif.) or goat anti-actin (Santa-Cruz Biotechnology, Inc) followed by a horseradish peroxidase-conjugated appropriate secondary antibody.” left out

`CC[C@@]1([C@@H]2O[C@@H]([C@H]3O[C@@](O)(CO)[C@H](C)C[C@@H]3C)C[C@@H]2C)CC[C@H]([C@]2(C)CC[C@]3(C[C@H](O)[C@@H](C)[C@@H]([C@@H](C)[C@@H](OC)[C@H](C)C(=O)O)O3)O2)O1` [Monensin, monensin] was tested, and the “secretion of vimentin from the mature MDM” value [1] was “eliminate secretion of vimentin”.

With `C=C1[C@@H](O)[C@@H]2O[C@]3(CC[C@H](/C=C/[C@@H](C)[C@@H]4CC(C)=C[C@@]5(O[C@H](C[C@@](C)(O)C(=O)O)CC[C@H]5O)O4)O3)CC[C@H]2O[C@@H]1[C@@H](O)C[C@H](C)[C@H]1O[C@@]2(CCCCO2)CC[C@H]1C` [OA, okadaic acid] the “increase in vimentin secretion” value ([2]; 7 day MDM in 10% serum, okadaic acid 100 nM, 2 h, FIG. 4b) was > 10 fold, the “secretion of vimentin (62 kD and 52 kD forms)” value [3] was “preferentially enhances secretion of the 52 kD form” and the extracellular vimentin levels ([1]; 10 day MDM in 40% serum, okadaic acid 100 nM, 2 h, FIG. 4a) was “led to an increase in extracellular vimentin levels”. For the same molecule, the “amount of phosphorylated vimentin in cells (cytoplasm) and supernatant” value [4] was “increase in phosphorylated vimentin in the supernatants but not in the cells”.

In the case of `COc1ccc2c(c1)c(C1=C(c3c[nH]c4ccccc34)C(=O)NC1=O)cn2CCCN(C)C` [GÖ6983], the OA-enhanced vimentin secretion ([2]; 7 day MDM in 10% serum, preincubated with GÖ 6983 250 nM 2 h prior to OA 100 nM, FIG. 4b) is reported as “partially decreased”, the “secretion of vimentin (62 kD and 52 kD forms)” value [3] is reported as “eliminated essentially all the secretion of vimentin” and the “secretion of vimentin in the presence of TNF-α” value ([1]; 40% serum treated MDM, GÖ6983 followed by TNF-α) is reported as “not blocked”. The “vimentin secretion (vimentin in the supernatant)” value [1] was “almost completely blocked; also recorded: significantly blocked”, the “amount of actin detected in the supernatants” value ([1]; eleven day MDM with or without GÖ6983, FIG. 3c) was “does not modify the amount of actin” and the “amount of phosphorylated vimentin in cells (cytoplasm) and supernatant” value [4] was “markedly decreased the amount of phosphorylated vimentin in the cytoplasm as well as in the supernatant”.

In the case of `C[S+]([O-])c1ccc(-c2nc(-c3ccncc3)c(-c3ccc(F)cc3)[nH]2)cc1` (stereo not shown) [SB203580], the “vimentin secretion (vimentin in the supernatant)” value [1] is reported as “did not block secretion”.

In the case of `CC(C)C[C@H](NC(=O)[C@H]1O[C@@H]1C(=O)O)C(=O)NCCCCN=C(N)N` [E-64], the “vimentin proteolytic products, intracellularly and in the supernatant” value [5] is reported as “marked decrease”.

tunicamycin was tested, and the “secretion of vimentin from the mature MDM” value [1] was “eliminate secretion of vimentin”.

With TNF-α the “induction of secretion of vimentin” value ([2]; 1 day human monocytes in 10% human serum, TNF-α 0.5, 1 or 5 ng ml−1, 12 h, densitometry, FIGS. 5b, 5c) was “up to 120 fold”.

B1: IL-10: anti-inflammatory cytokine, a potent inhibitor of activated macrophages (protein, UniProt P22301 19-178, looked up)
Interleukin-10: SPGQGTQSENSCTHFPGNLPNMLRDLRDAFSRVKTFFQMKDQLDNLLLKESLLEDFKGYLGCQALSEMIQFYLEEVMPQAENQDPDIKAHVNSLGENLKTLRLRLRRCHRFLPCENKSKAVEQVKNAFNKLQEKGIYKAMSEFDIFINYIEAYMTMKIRN
In the case of B1, the secretion of vimentin ([1]; MDM in 40% human serum, IL-10 10, 50 or 500 ng ml−1, 12 h, FIG. 5a) is reported as “markedly decreased the secretion of vimentin”.
